Assay results reported in US20240181081A1, “Compositions and Methods for Treatment of Myotonic Dystrophy Type 1 with CRISPR/SACAS9” (Vertex Pharmaceuticals Incorporated, priority 2021, published 2024).

Assays:
[1] = test system: CUG RNA foci in primary DM1 patient myoblasts; experiment: DOUBLE-cut screening: FISH staining of RNA foci in primary DM1 patient myoblasts; format: cell-based, human; details: sgRNA pair RNP, 72 hrs post nucleofection; for % of CUG foci free nuclei (DNA-PKi): 3 μM Compound 6 for 48 hrs; for % of CUG foci free nuclei (Vehicle): DMSO 48 hrs
Protocol: (§1) RNPs were assembled with recombinant SaCas9 protein (Aldevron) and chemically modified sgRNAs (Synthego) at a ratio of 1:3 (protein:sgRNA). For SINGLE-cut screening, RNP complexes were assembled with 30 pmol of SaCas9 and 90 pmol of sgRNA in P5 Primary Cell Nucleofector Solution (Lonza). After incubation at room temperature for 20 minutes, 10 μL of RNP complex was mixed with two hundred thousand primary myoblasts resuspended in 10 μL of P5 Nucleofector Solution. For DOUBLE-cut screening, RNP complexes were first assembled for individual sgRNAs with 20 pmol of SaCas9 protein and 60 pmol of sgRNAs in 5 μL of P5 Nucleofector Solution. After incubation at room temperature for 20 minutes, the two RNP complexes (one for upstream sgRNA and one for downstream sgRNA) were mixed at 1:1 ratio and then further mixed with two hundred thousand primary myoblasts resuspended in 10 μL of P5 Nucleofector Solution.
(§2) The Nucleofector 96-well Shuttle System (Lonza) was used to deliver the SaCa9/sgRNA RNPs into primary DM1 patient myoblasts using the nucleofection program CM138. Following nucleofection, myoblasts from each well of nucleofection shuttle were split into six wells of the 96-well cell culture plate (Greiner, 655090) coated with matrigel. The first three wells were treated with DMSO for 48 hrs before changing to fresh myoblast growth medium, and the other three wells were treated with 3 μM of DNA-PKi Compound 6 for 48 hrs before changing to fresh myoblast growth medium. 72 hrs post nucleofection, two wells of DMSO-treated myoblasts and two wells of DNA-PKi-treated myoblasts from each nucleofection were harvested for genomic DNA extraction using the Kingfisher Flex purification system (Thermal Fisher), whereas one well of DMSO-treated myoblasts and one well of DNA-PKi-treated myoblasts were stained for RNA foci by FISH staining.
Primary myoblasts were fixed for 15 min with 4% paraformaldehyde (PFA) and washed five times with 1×PBS for 10 min each at room temperature. Before staining, cells were permeabilized with 0.5% triton X-100 in 1×PBS for 5 min at room temperature, and then washed with 30% formamide and 2× saline-sodium citrate (SSC) mixture for 10 min at room temperature. Cells were then stained with 1 ng/μL of Cy3-PNA(CAG) 5 probe (PNA Bio, F5001) diluted in 30% formamide, 2×SSC, 2 μg/mL BSA, 66 μg/mL yeast tRNA, and 2 mM vanadyl complex for 15 min at 80° C. Following probe staining, cells were then washed in 30% formamide and 2×SSC mixture for 30 min at 42° C., then washed in 30% formamide and 2×SSC mixture for 30 min at 37° C., and then washed in 1×SSC solution for 10 min at room temperature, and finally washed in 1×PBS for 10 min at room temperature. Cells were next stained with anti-MBNL1 antibody (Santa Cruz, 3A4) diluted in 1% bovine serum albumin (BSA) for overnight at 4° C., and washed twice with 1×PBS for 10 min each at room temperature. Cells were then incubated with the secondary antibody goat […] Alexa 647 (Thermo Fisher, A32728) diluted in 1% BSA for 1 hr at room temperature, and washed twice with 1×PBS for 10 min each at room temperature. Next, cells were stained with Hoechst solution (Thermo Fisher, H3569) at 0.1 mg/ml for 5 min, and washed once with 1×PBS for 5 min. PBS was aspirated and fresh 100 μl of fresh PBS was added to each well. High-throughput acquisition of images was completed with the ImageXpress Micro Confocal High-Content Imaging System (Molecular Devices). RNA foci quantifications were accomplished with a customized analysis module of the MetaXpress program (Molecular Devices).
Next, DOUBLE-cut screening was performed to assess the efficiency of paired sgRNAs-induced CTG repeat excision and RNA foci reduction. 90 SaCas9 sgRNA pairs formed by one upstream sgRNA and one downstream sgRNA were assembled with recombinant SaCas9 protein into RNP complex and nucleofected into primary DM1 patient myoblasts. […]

[2] = test system: CTG repeat expansion in the 3′ UTR of human DMPK gene; experiment: DOUBLE-cut screening: CTG repeat excision by loss-of-signal ddPCR in primary DM1 patient myoblasts; format: cell-based; details: sgRNA pair RNP, mean of upstream and downstream ddPCR assays; for % of CTG repeat excision efficiency by ddPCR (DNA-PKi): 3 μM Compound 6 for 48 hrs; for % of CTG repeat excision efficiency by ddPCR (Vehicle): DMSO 48 hrs
Protocol: as §1, §2
The primers and probes of ddPCR were designed using the online primer design software Primer3Plus (http://www.bioinformatics.nl/cgi-bin/primer3plus/primer3plus.cgi). The two Target primers/probe sets were used to detect CTG repeat excision, and the Reference primers/probe set was used to amplify a region located in Exon 1 of human DMPK gene and it served as a reference control for the Target sets. The 24 μL of ddPCR reaction consisted of 12 μL of Supermix for Probes (no dUTP) (Bio-Rad Laboratories), 1 μL of Reference primers mix (21.6 μM), 1 μL of Reference probe (6 μM), 1 μL of Target primers mix (21.6 μM), 1 μL of Target probe (6 μM), and 8 μL of sample genomic DNA. Droplets were generated using probe oil with the QX200 Droplet Generator (Bio-Rad Laboratories). Droplets were transferred to a 96-well PCR plate, sealed and cycled in a C1000 deep well Thermocycler (Bio-Rad Laboratories) under the following cycling protocol: 1 cycle at 95° C. for 10 min; 40 cycles of 94° C. for 30 sec, and 58° C. for 1 min; 1 cycle at 98° C. for 10 min (for enzyme inactivation). The cycled plate was then transferred and read in the FAM and HEX channels using the Bio-Rad QX200 Droplet Reader (Bio-Rad Laboratories). ddPCR analysis was performed with the Bio-Rad QuantaSoft Pro Software.
Next, DOUBLE-cut screening was performed to assess the efficiency of paired sgRNAs-induced CTG repeat excision and RNA foci reduction. 90 SaCas9 sgRNA pairs formed by one upstream sgRNA and one downstream sgRNA were assembled with recombinant SaCas9 protein into RNP complex and nucleofected into primary DM1 patient myoblasts. Nucleofected myoblasts were treated with either DMSO (vehicle) or 3 μM of Compound 6 (DNA-PKi) for 48 hrs. 72 hrs post nucleofection, myoblasts were subjected to either genomic DNA isolation or RNA foci staining.
One upstream and one downstream loss-of-signal droplet digital PCR (ddPCR) assays were used to determine the efficiency of CTG repeat excision. ddPCR signals would be abolished upon excision of the CTG repeat expansion in these loss-of-signal ddPCR assays. […]

| Substance | % of CUG foci free nuclei (DNA-PKi) [1] [%] | % of CUG foci free nuclei (Vehicle) [1] [%] | % of CTG repeat excision efficiency by ddPCR (DNA-PKi) [2] [%] | % of CTG repeat excision efficiency by ddPCR (Vehicle) [2] [%] |
| --- | --- | --- | --- | --- |
| SaU1 + SaD2: SaCas9 sgRNA pair, SEQ ID NOs: 1 and 10 (guide 1 GCCCCGGAGTCGAAGACAGTTC; guide 2 TCGGCCAGGCTGAGGCCCTGAC; listed as DNA, chemistry not fully specified) | 84.27 | 76.74 | 54.31 | 47.82 |
| SaU1 + SaD3: SaCas9 sgRNA pair, SEQ ID NOs: 1 and 11 (guide 1 GCCCCGGAGTCGAAGACAGTTC; guide 2 CAACGATAGGTGGGGGTGCGTG; listed as DNA, chemistry not fully specified) | 81.32 | 47.32 | 52.18 | 33.47 |
| SaU1 + SaD4: SaCas9 sgRNA pair, SEQ ID NOs: 1 and 12 (guide 1 GCCCCGGAGTCGAAGACAGTTC; guide 2 ACTTTGCGAACCAACGATAGGT; listed as DNA, chemistry not fully specified) | 87.86 | 81.45 | 61.00 | 41.92 |
| SaU1 + SaD5: SaCas9 sgRNA pair, SEQ ID NOs: 1 and 13 (guide 1 GCCCCGGAGTCGAAGACAGTTC; guide 2 GGGTTTGGCAAAAGCAAATTTC; listed as DNA, chemistry not fully specified) | 82.90 | 70.23 | 53.67 | 30.65 |
| SaU1 + SaD6: SaCas9 sgRNA pair, SEQ ID NOs: 1 and 14 (guide 1 GCCCCGGAGTCGAAGACAGTTC; guide 2 CTTTTGCCAAACCCGCTTTTTC; listed as DNA, chemistry not fully specified) | 70.98 | 31.66 | 49.69 | 32.51 |
| SaU1 + SaD7: SaCas9 sgRNA pair, SEQ ID NOs: 1 and 15 (guide 1 GCCCCGGAGTCGAAGACAGTTC; guide 2 GGGGCGCGGGATCCCCGAAAAA; listed as DNA, chemistry not fully specified) | 80.16 | 49.51 | 56.69 | 34.21 |
| SaU1 + SaD10: SaCas9 sgRNA pair, SEQ ID NOs: 1 and 18 (guide 1 GCCCCGGAGTCGAAGACAGTTC; guide 2 TTGGGGGTCCTGTAGCCTGTCA; listed as DNA, chemistry not fully specified) | 84.12 | 75.91 | 61.44 | 37.72 |
| SaU1 + SaD11: SaCas9 sgRNA pair, SEQ ID NOs: 1 and 19 (guide 1 GCCCCGGAGTCGAAGACAGTTC; guide 2 CAAAACGTGGATTGGGGTTGTT; listed as DNA, chemistry not fully specified) | 74.03 | 41.32 | 52.38 | 26.52 |
| SaU1 + SaD12: SaCas9 sgRNA pair, SEQ ID NOs: 1 and 20 (guide 1 GCCCCGGAGTCGAAGACAGTTC; guide 2 TCAGTGCATCCAAAACGTGGAT; listed as DNA, chemistry not fully specified) | 84.94 | 69.78 | 63.43 | 37.77 |
| SaU1 + SaD13: SaCas9 sgRNA pair, SEQ ID NOs: 1 and 21 (guide 1 GCCCCGGAGTCGAAGACAGTTC; guide 2 CCCAACAACCCCAATCCACGTT; listed as DNA, chemistry not fully specified) | 74.44 | 35.75 | 54.59 | 25.67 |
| SaU1 + SaD15: SaCas9 sgRNA pair, SEQ ID NOs: 1 and 23 (guide 1 GCCCCGGAGTCGAAGACAGTTC; guide 2 GACAATAAATACCGAGGAATGT; listed as DNA, chemistry not fully specified) | 85.70 | 72.80 | 64.96 | 37.54 |
| SaU1 + SaD17: SaCas9 sgRNA pair, SEQ ID NOs: 1 and 25 (guide 1 GCCCCGGAGTCGAAGACAGTTC; guide 2 TTTATTCGCGAGGGTCGGGGGT; listed as DNA, chemistry not fully specified) | 75.32 | 45.51 | 53.66 | 26.29 |
| SaU7 + SaD2: SaCas9 sgRNA pair, SEQ ID NOs: 7 and 10 (guide 1 CGCGGCCGGCGAACGGGGCTCG; guide 2 TCGGCCAGGCTGAGGCCCTGAC; listed as DNA, chemistry not fully specified) | 81.28 | 70.29 | – | – |
| SaU8 + SaD2: SaCas9 sgRNA pair, SEQ ID NOs: 8 and 10 (guide 1 GGCTCGAAGGGTCCTTGTAGCC; guide 2 TCGGCCAGGCTGAGGCCCTGAC; listed as DNA, chemistry not fully specified) | 82.91 | 76.39 | – | – |
